In patent US20220233652A1, “Pharmaceutical Compositions Comprising Integration-Promoting Peptides” (priority 2018, published 2022):

Tests used:
[1] = tested on: 1975 human lung cancer cells; experiment: Lung cancer tumor mice model; type: in vivo, athymic nude mice; conditions: for Inhibition of growth of lung cancer tumors relative to control: day 11
Procedure: (§1) Two models of cancer were generated: lung cancer and pancreatic cancer. About 5×10^6 of 1975 human lung cancer cells per 0.1 ml PBS per mouse were injected to male 7 weeks old athymic nude mice (n=30). The cells were injected, subcutaneously at one site on the back of the mice. About 5×10^6 PANC-1 human pancreatic cancer cells per 0.1 ml PBS per mouse were injected to male 7 weeks old athymic nude mice (n=22). The cells were injected, subcutaneously at one site on the back of the mice. When tumors were palpable (˜0.3-0.5 cm^3), the mice were randomly divided into three groups (Table 27) and the viruses and/or peptides were injected, twice a week for two weeks.
(§2) The first day of the study was defined as ‘Day 1’. The animals were administrated IP with either Vehicle (PBS or Formulation), lentiviral particles and SC with test items according to Table 27 on days 1, 4, 8 and 11. Body weight and tumor volume were checked on days 3, 7, 11, 14 and 17 (the latter was measured with a caliper). At the end of the experiment, on day 17, the mice were anesthetized and then sacrificed, and the tumors were removed, as well as lung, spleen, kidney and liver.

[2] = Phase I/IIa clinical trial: safety and tolerability; type: in vivo, human; conditions: HIV patients, 5 weeks SC administration
Excerpt: Patients are monitored for adverse events (AE) of the INS peptide such as rash, acute allergic reaction, bronchospasm, respiratory distress, and acute vascular leak syndrome. If a severe administration related reaction occurs, the drug administration is stopped. Blood chemistry, hematology, coagulation, and urinalysis are repeated on Days 1, 4, 8, 11, 15, 18, 22, 25 at the clinic visits.
The primary safety endpoint is the frequency, severity, and duration of side effects. Number of participants with treatment-related adverse events as assessed by CTCAE v4.03, are evaluated though study completion. Main adverse events evaluation is based on DADS Toxicity criteria (Division of AIDS DADS Table for Grading the Severity of Adult and Paediatric Adverse Events, Corrected Version 2.1): • Viral load • Lymphopenia/Neutropenia • Immuno-reaction over reaction/cytokine storm • Infection surrounding the administration site • Liver function (lab tests) • Kidney function (lab tests)
Incidence of withdrawal (drop-out rate) due to side effects is evaluated throughout the study.

[3] = Mortality, body weight and safety in tumor mice models; type: in vivo, athymic nude mice; conditions: lung and pancreatic cancer models
Procedure: • 1. Mortality—every day • 2. Tumor measurements—twice a week • 3. Tumor weight post mortem • 4. Tissue preservation—kept in formalin or were snap freezed and kept at −80° C.
as §2

[4] = tested on: PANC-1 human pancreatic cancer cells; experiment: Pancreatic cancer tumor mice model; type: in vivo, athymic nude mice; conditions: day 17
Procedure: as §1, §2

CD4 T-cell = experiment: Phase I/IIa clinical trial: CD4 T-cell count; type: in vivo, human; conditions: patients treated with INS (part II with lopinavir plus ritonavir)
Procedure: Reduced viral protein p24 antigen. • 3. Functional Assessment of HIV Infection (FAHI) questionnaire.
In addition, the preliminary results indicated treatment efficacy as measured by decrease in viral load in HIV patients. Most patients achieved significant reduction in viral load for up to 90% from baseline during the first 5 weeks of SC administration, meeting its exploratory endpoint. […] In this study, patients were treated for 5 weeks with a combined treatment of the subcutaneous composition as previous (0.2-0.4 mg/kg twice a week) and commercially available lopinavir 800 mg plus ritonavir 200 mg daily. The control group received only lopinavir 800 mg plus ritonavir 200 mg for additional 5 weeks.

[5] = INS HCl solubility and stability in isotonic buffers of different pH (5 mg/ml in buffer, diluted to 1 mg/ml, LC-MS); type: physicochemical
Procedure: Analytical HPLC-MS was performed using an Agilent 1260 series Liquid Chromatograph/Mass Selective Detector (MSD, Single Quadrupole) equipped with an electrospray interface and a UV diode array detector. Analyses were performed on an ACE C8, 50×3.0 mm, 3 μm column, with an isocratic 0.1% formic acid/ACN (19%) eluent, at a rate of 1 ml/min over a period of 5 minutes. UV absorption was measured at 220 nm and 215-395 nm. MS analysis was performed with ESI (electron spray ionization) with a positive ionization method. PBS isotonic buffer was prepared from 1 tablet of Sigma Phosphate buffer saline P4417, in 200 ml of deionized water (according to product reconstitution instructions). Acetate isotonic buffers were prepared from sodium acetate/acetic acid in water in 150 mM concentration. NaOH 50% solution was used to adjust the pH. NaOAc solution was prepared by dissolving 1.23 gr in 100 ml water. Acetic acid solution was prepared by adding 945 μl of acetic acid to 100 ml water. […] The samples were further diluted to 1 mg/ml before analyzing by HPLC. The samples were prepared by dilution of 80 μl of reaction solution with 320 μl of MeOH. Each sample was filtered through PTFE 0.45 um filter vial. The samples were run in LC-MS and data used for calculation concentration in buffer. All injections for stability assay were performed using 20 μl due to low peak intensity with 2 μl. Final concentration was calculated accordingly.

[6] = PBS buffer pH 7.4, at 5° C. and at 25° C., 0 hours
[7] = acetate buffer pH 4, 5° C., 0 hours
[8] = acetate buffer pH 4, 5° C., 24 hours
[9] = acetate buffer pH 4, 5° C., 168 hours
[10] = acetate buffer pH 4, 25° C., 0 hours
[11] = acetate buffer pH 4, 25° C., 24 hours
[12] = acetate buffer pH 4, 25° C., 168 hours
[13] = acetate buffer pH 6, 5° C., 0 hours
[14] = acetate buffer pH 6, 5° C., 24 hours
[15] = acetate buffer pH 6, 5° C., 168 hours
[16] = acetate buffer pH 6, 25° C., 0 hours
[17] = acetate buffer pH 6, 25° C., 24 hours
[18] = acetate buffer pH 6, 25° C., 168 hours

WTAVQMAVFIHNFKRK [INS]
Inhibition of growth of lung cancer tumors relative to control ([1]; lentiviral particles IP + INS peptide 1.25 mg/kg SC on days 1, 4, 8, 11): 50%
Inhibition of growth of lung cancer tumors relative to control ([1]; lentiviral particles IP + INS peptide 2.5 mg/kg SC on days 1, 4, 8, 11): 50%
Comparison of doses at the end of the experiment ([1]; day 17, INS 1.25 mg/kg versus 2.5 mg/kg, with lentiviral particles): better results than with INS 2.5 mg/kg
Side effects and harm to immune system (monitored by CD4 cells) [2]: no side effects and no harm to immune system
Mortality ([3]; 17 days): No animal was found dead or in morbid state
Body weight ([3]; mice gained weight as expected): no differences between groups
Reduction of weight of tumors relative to control ([4]; lentiviral particles + INS 1.25 mg/kg SC): 25%
Reduction of weight of tumors relative to control ([4]; lentiviral particles + INS 2.5 mg/kg SC): 50%
Increase of CD4 T-cell count relative to baseline (CD4 T-cell): up to 97%
Area [5, 6]: 201.90 mAU*S
Assay % [5, 6]: 2.91%
Concentration calculated from LC-MS data [5, 6]: 30 µg/mL
Area ([5]; PBS buffer pH 7.4, at 5° C. and at 25° C., 24 hours): Not observed
Area ([5]; PBS buffer pH 7.4, at 5° C. and at 25° C., 168 hours): Not observed
Solubility in PBS buffer pH 7.4 ([5]; a white precipitate was observed): no solubility at all
Assay % [5, 7]: 66.84%
Concentration calculated from LC-MS data [5, 7]: 646 µg/mL
Assay % [5, 8]: 62.32%
Concentration calculated from LC-MS data [5, 8]: 602 µg/mL
Assay % [5, 9]: 62.00%
Concentration calculated from LC-MS data [5, 9]: 599 µg/mL
Assay % [5, 10]: 66.87%
Concentration calculated from LC-MS data [5, 10]: 646 µg/mL
Assay % [5, 11]: 66.25%
Concentration calculated from LC-MS data [5, 11]: 640 µg/mL
Assay % [5, 12]: 36.75%
Concentration calculated from LC-MS data [5, 12]: 355 µg/mL
Assay % [5, 13]: 73.49%
Concentration calculated from LC-MS data [5, 13]: 729 µg/mL
Assay % [5, 14]: 53.43%
Concentration calculated from LC-MS data [5, 14]: 530 µg/mL
Assay % [5, 15]: 44.15%
Concentration calculated from LC-MS data [5, 15]: 438 µg/mL
Assay % [5, 16]: 73.49%
Concentration calculated from LC-MS data [5, 16]: 729 µg/mL
Assay % [5, 17]: 52.42%
Concentration calculated from LC-MS data [5, 17]: 520 µg/mL
Assay % [5, 18]: 21.98%
Concentration calculated from LC-MS data [5, 18]: 218 µg/mL
Assay at time zero ([5]; acetate buffers pH 4 and pH 6): about 70%
Stability at 5° C. versus 25° C. ([5]; acetate buffers pH 4 and pH 6): better stability at 5 °C compared to the samples at 25 °C
